Patent US20090312280A1

How the values were obtained:
Colo205 (Colon) = experiment: cell survival / MTT combination cytotoxicity; type: cell-based, human; details: Colo205; IC50 cytotoxic agent alone / IC50 combination; Compound 1 at 8x EC50 (360 nM)
PC-3 (Prostate) = experiment: cell survival / MTT combination cytotoxicity; type: cell-based, human; details: PC-3; IC50 cytotoxic agent alone / IC50 combination; Compound 1 at 8x EC50 (360 nM)
MDA-MB-231 (Breast) = experiment: cell survival / MTT combination cytotoxicity; type: cell-based, human; details: IC50 cytotoxic agent alone / IC50 combination, Compound 1 at 8x EC50 (360 nM)
K562 (Leukemia) = experiment: cell survival / MTT combination cytotoxicity; type: cell-based, human; details: IC50 cytotoxic agent alone / IC50 combination, Compound 1 at 4x EC50 (180 nM)
HT29 (Colon) = experiment: cell survival / MTT combination cytotoxicity; type: cell-based, human; details: HT29; IC50 cytotoxic agent alone / IC50 combination; Compound 1 at 8x EC50 (360 nM)
[1] = test system: Colo205 human colon carcinoma xenografts; experiment: in vivo chemopotentiation, Colo205 xenograft; set-up: species or system mice
Description: (§1) Experiments 1 to 39 were conducted in mice xenografts. Experiments 40-42 were conducted in rat xenografts. Specifically, irinotecan combination studies were conducted in HT29 and Colo205. Gemcitabine combination studies were conducted in Colo205. Docetaxel combination studies were conducted in Colo205.
(§2) Gemcitabine and irinotecan are DNA directed cytotoxics known to induce checkpoint activation and subsequent S/G2M-phase arrest. […] Docetaxel is an antimitotics where recent discoveries describe a novel function for CHK1 in the mitotic checkpoint.

[2] = test system: HT29 human colon carcinoma xenografts; experiment: in vivo chemopotentiation, HT29 xenograft (mice)
Description: as §1, §2

[3] = test system: HT29 human colon carcinoma xenografts; experiment: in vivo chemopotentiation, HT29 xenograft (rat)
Description: as §1, §2

[4] = Exp 18, docetaxel 30 mg/kg, Compound 1 30 mg/kg as printed, IP Q1w×3
[5] = Exp 19, docetaxel 30 mg/kg + Compound 1 7.5 mg/kg, IP simultaneously Q1w×3
[6] = Exp 20, docetaxel 30 mg/kg + Compound 1 15 mg/kg, IP simultaneously Q1w×3
[7] = Exp 21, docetaxel 30 mg/kg + Compound 1 30 mg/kg, IP simultaneously Q1w×3
[8] = Exp 22, docetaxel 15 mg/kg, Compound 1 15 mg/kg as printed, IP Q1w×3
[9] = Exp 23, docetaxel 15 mg/kg + Compound 1 15 mg/kg, IP simultaneously Q1w×3
[10] = Exp 24, docetaxel 15 mg/kg + Compound 1 30 mg/kg, IP simultaneously Q1w×3
[11] = Exp 25, docetaxel 15 mg/kg Q1w×3 + Compound 1 60 mg/kg, IP simultaneously, Compound 1 two cycles, total 120 mg/kg
[12] = Exp 26, irinotecan 10 mg/kg IP Q3d×4, Compound 1 0 mg/kg
[13] = Exp 27, irinotecan 10 mg/kg IP Q3d×4 + Compound 1 4 mg/kg IP Q3d×4 24 h after
[14] = Exp 28, irinotecan 10 mg/kg IP Q3d×4 + Compound 1 20 mg/kg IP Q3d×4 24 h after
[15] = Exp 29, irinotecan 10 mg/kg IP Q3d×4 + Compound 1 40 mg/kg IP Q3d×4 24 h after
[16] = Exp 30, irinotecan 10 mg/kg IP Q3d×4, Compound 1 0 mg/kg
[17] = Exp 31, irinotecan 30 mg/kg IP Q3d×4, Compound 1 0 mg/kg
[18] = Exp 32, irinotecan 60 mg/kg IP Q3d×4, Compound 1 0 mg/kg
[19] = Exp 33, irinotecan 10 mg/kg IP Q3d×4 + Compound 1 40 mg/kg IP Q3d×4 24 h after
[20] = Exp 34, irinotecan 30 mg/kg IP Q3d×4 + Compound 1 40 mg/kg IP Q3d×4 24 h after
[21] = Exp 35, irinotecan 60 mg/kg IP Q3d×4 + Compound 1 40 mg/kg IP Q3d×4 24 h after
[22] = Exp 36, irinotecan 50 mg/kg IP Q1w×3, Compound 1 0 mg/kg
[23] = Exp 37, irinotecan 100 mg/kg IP Q1w×3, Compound 1 0 mg/kg
[24] = Exp 38, irinotecan 50 mg/kg IP Q1w×3 + Compound 1 40 mg/kg IP twice weekly, 24 and 72 h after, three weeks
[25] = Exp 39, irinotecan 100 mg/kg IP Q1w×3 + Compound 1 40 mg/kg IP twice weekly, 24 and 72 h after, three weeks
[26] = Exp 40, irinotecan 100 mg/kg IP Q3d×4, Compound 1 0 mg/kg
[27] = Exp 41, irinotecan 100 mg/kg IP Q3d×4 + Compound 1 25 mg/kg two hour IV infusion Q3d×4 24 h after
[28] = Exp 42, irinotecan 100 mg/kg IP Q3d×4 + Compound 1 100 mg/kg two hour IV infusion Q3d×4 24 h after
[29] = Exp 8, irinotecan 10 mg/kg IP Q3d×4, Compound 1 0 mg/kg
[30] = Exp 9, irinotecan 10 mg/kg IP Q3d×4 + Compound 1 4 mg/kg IP Q3d×4 24 h after
[31] = Exp 10, irinotecan 10 mg/kg IP Q3d×4 + Compound 1 20 mg/kg IP Q3d×4 24 h after
[32] = Exp 11, irinotecan 10 mg/kg IP Q3d×4 + Compound 1 40 mg/kg IP Q3d×4 24 h after
[33] = Exp 12, irinotecan 10 mg/kg IP Q3d×4, Compound 1 0 mg/kg
[34] = Exp 13, irinotecan 30 mg/kg IP Q3d×4, Compound 1 0 mg/kg
[35] = Exp 14, irinotecan 60 mg/kg IP Q3d×4, Compound 1 0 mg/kg
[36] = Exp 15, irinotecan 10 mg/kg IP Q3d×4 + Compound 1 40 mg/kg IP Q3d×4 24 h after
[37] = Exp 16, irinotecan 30 mg/kg IP Q3d×4 + Compound 1 40 mg/kg IP Q3d×4 24 h after
[38] = Exp 17, irinotecan 60 mg/kg IP Q3d×4 + Compound 1 40 mg/kg IP Q3d×4 24 h after

## N.N.O=C([O-])C1(C(=O)[O-])CCC1.[Pt+2] [Carboplatin]
Colo205 (Colon)
  PF50 (Potentiation Factor50): 5.4
PC-3 (Prostate)
  PF50 (Potentiation Factor50): 3.1
MDA-MB-231 (Breast)
  PF50 (Potentiation Factor50): 2.55
K562 (Leukemia)
  PF50 (Potentiation Factor50): 1.9
HT29 (Colon)
  PF50 (Potentiation Factor50): 3

## CC(=O)O[C@@]12CO[C@@H]1C[C@H](O)[C@@]1(C)C(=O)[C@H](O)C3=C(C)[C@@H](OC(=O)[C@H](O)[C@@H](NC(=O)OC(C)(C)C)c4ccccc4)C[C@@](O)([C@@H](OC(=O)c4ccccc4)[C@H]21)C3(C)C [Docetaxel]
[1]; [4]
  % TGI: 85%
  Growth delay: 54 days
[1]; [5]
  % TGI: 90%
  % poten TGI: 35%
  Growth delay: 53 days
[1]; [6]
  % TGI: 93%
  % TTP: 36%
  % poten TGI: 57%
  Growth delay: 68 days
[1]; [7]
  % TGI: 103%
  % TTP: 50%
  % poten TGI: 122%
  Growth delay: 74 days
[1]; [8]
  % TGI: 49%
  Growth delay: 4.75 days
[1]; [9]
  % TGI: 65%
  % TTP: 72%
  % poten TGI: 31%
  Growth delay: 19.75 days
[1]; [10]
  % TGI: 79%
  % TTP: 177%
  % poten TGI: 59%
  Growth delay: 41.5 days
[1]; [11]
  % TGI: 99%
  % TTP: 145%
  % poten TGI: 99%
  Growth delay: 35 days

## COc1cccc2c1C(=O)c1c(O)c3c(c(O)c1C2=O)C[C@@](O)(C(=O)CO)C[C@@H]3O[C@H]1C[C@H](N)[C@H](O)[C@H](C)O1 [Doxorubicin]
Colo205 (Colon)
  PF50 (Potentiation Factor50): 1.1
PC-3 (Prostate)
  PF50 (Potentiation Factor50): 1.5
MDA-MB-231 (Breast)
  PF50 (Potentiation Factor50): 2.25
K562 (Leukemia)
  PF50 (Potentiation Factor50): 1.1
HT29 (Colon)
  PF50 (Potentiation Factor50): 2.2

## CCc1c2c(nc3ccc(OC(=O)N4CCC(N5CCCCC5)CC4)cc13)-c1cc3c(c(=O)n1C2)COC(=O)[C@]3(O)CC [Irinotecan]
[2]; [12]
  % TGI: 26%
  Growth delay: 1.75 days
[2]; [13]
  % TGI: 26%
  % TTP: 29%
  Growth delay: 7.5 days
[2]; [14]
  % TGI: 61%
  % TTP: 39%
  % poten TGI: 47%
  Growth delay: 9.5 days
[2]; [15]
  % TGI: 57%
  % TTP: 44%
  % poten TGI: 42%
  Growth delay: 10.5 days
[2]; [16]
  % TGI: 8%
  Growth delay: 2.75 days
[2]; [17]
  % TGI: 13%
  Growth delay: 4 days
[2]; [18]
  % TGI: 49%
  Growth delay: 12.5 days
[2]; [19]
  % TGI: 22%
  % TTP: 0%
  % poten TGI: 15%
  Growth delay: 1.0 days
[2]; [20]
  % TGI: 66%
  % TTP: 61%
  % poten TGI: 60%
  Growth delay: 17.5 days
[2]; [21]
  % TGI: 77%
  % TTP: 28%
  % poten TGI: 55%
  Growth delay: 21 days
[2]; [22]
  % TGI: 65%
  Growth delay: 7.5 days
[2]; [23]
  % TGI: 70%
  Growth delay: 11.5 days
[2]; [24]
  % TGI: 77%
  % TTP: 24%
  % poten TGI: 36%
  Growth delay: 14 days
[2]; [25]
  % TGI: 89%
  % TTP: 49%
  % poten TGI: 62%
  Growth delay: 21 days
[3]; [26]
  % TGI: 45%
  Growth delay: 4.0 days
[3]; [27]
  % TGI: 58%
  % poten TGI: 23%
  Growth delay: 4.0 days
[3]; [28]
  % TGI: 77%
  % TTP: 24%
  % poten TGI: 58%
  Growth delay: 8.0 days
[1]; [29]
  % TGI: 35%
  Growth delay: 18 days
[1]; [30]
  % TGI: 50%
  % poten TGI: 22%
  Growth delay: 18 days
[1]; [31]
  % TGI: 69%
  % TTP: 33%
  % poten TGI: 52%
  Growth delay: 24 days
[1]; [32]
  % TGI: 59%
  % TTP: 12%
  % poten TGI: 37%
  Growth delay: 20.5 days
[1]; [33]
  % TGI: 35%
  Growth delay: 18 days
[1]; [34]
  % TGI: 65%
  Growth delay: 22 days
[1]; [35]
  % TGI: 83%
  Growth delay: 48 days
[1]; [36]
  % TGI: 59%
  % TTP: 12%
  % poten TGI: 37%
  Growth delay: 20.5 days
[1]; [37]
  % TGI: 73%
  % TTP: 54%
  % poten TGI: 24%
  Growth delay: 34 days
[1]; [38]
  % TGI: 91%
  % TTP: 8%
  % poten TGI: 47%
  Growth delay: 52 days

## CO[C@@]12[C@H](COC(N)=O)C3=C(C(=O)C(C)=C(N)C3=O)N1C[C@@H]1N[C@@H]12 [Mytomicin C]
Colo205 (Colon)
  PF50 (Potentiation Factor50): 5.3
MDA-MB-231 (Breast)
  PF50 (Potentiation Factor50): 1.2
HT29 (Colon)
  PF50 (Potentiation Factor50): 3.7
